One data set can be described thus: log P by HPLC on reversed-phase column (C18), EEC Directive 79/831 Annex V.A8. Type of data set: physicochemical. The following applies: Method A: 40° C., 0.1% aqueous formic acid and acetonitrile. On the procedure: In table 1, the log P values were determined in accordance with EEC Directive 79/831 Annex V.A8 by HPLC (High Performance Liquid Chromatography) on a reversed-phase column (C18), using the methods described below:
Method A: temperature: 40° C.; mobile phases: 0.1% aqueous formic acid and acetonitrile; linear gradient from 10% acetonitrile to 95% acetonitrile;
Method B: temperature: 40° C.; mobile phases: 0.001 molar ammonium acetate solution in water and acetonitrile; linear gradient from 10% acetonitrile to 95% acetonitrile.
Calibration was carried out using unbranched alkan-2-ones (comprising 3 to 16 carbon atoms) with known log P values (determination of the log P values by the retention times using linear interpolation between two successive alkanones). lambda-max-values were determined using UV-spectra from 200 nm to 400 nm and the peak values of the chromatographic signals.
As to `Cc1nc2c(F)c(F)ccc2nc1Oc1cccc(Cl)c1[Si](C)(C)O` [I.090], the logP (in general, a log measure of how a compound divides between an organic and an aqueous phase) worked out at 3.94.

Molecule `C=C[Si](C)(C)c1c(F)cccc1Oc1nc2ccc(F)c(F)c2nc1C` [I.091] returned a logP of 5.62.

Turning to `Cc1nc2c(F)c(F)ccc2nc1Oc1cccc(F)c1[Si](C)(C)F` [I.092], the logP came to 4.75.

Regarding `Cc1nc2c(F)c(F)ccc2nc1Oc1cc(C#N)ccc1[Si](C)(C)O` [I.093], the logP is on record as 3.39.

Turning to `COc1cccc(Oc2nc3ccc(F)c(F)c3nc2C)c1[Si](C)(C)O` [I.094], the log partition coefficient (logP) is recorded as 3.60.

In turn, `Cc1nc2c(F)c(F)ccc2nc1Oc1cccc(OC(F)(F)F)c1[Si](C)(C)O` [I.095] registered a logP of 4.34.

In turn, `Cc1ccc([Si](C)(C)O)c(Oc2nc3ccc(F)c(F)c3nc2C)c1` [I.096] showed a logP of 3.76.

`Cc1ccc([Si](C)(C)O)c(Oc2nc3ccc(F)c(F)c3nc2C)c1` [I.097]: the logP is on record as 3.76.

`Cc1nc2c(F)c(F)ccc2nc1Oc1ccc(F)cc1[Si](C)(C)O` [I.098]: the logP was 3.63. This logP and that of the molecule before are within 0.2 log units of each other.

The molecule `Cc1ccc(Oc2nc3ccc(F)c(F)c3nc2C)c([Si](C)(C)O)c1` [I.099] showed a logP of 3.85.

In turn, `Cc1nc2c(F)c(F)ccc2nc1Oc1ccc(F)cc1[Si](C)(C)C` [I.100] registered a logP of 5.57.

Molecule `Cc1nc2c(F)c(F)ccc2nc1Oc1ccc(Cl)cc1[Si](C)(C)C` [I.101] returned a logP of 6.11.

In turn, `Cc1nc2c(F)c(F)ccc2nc1Oc1ccc(Cl)cc1[Si](C)(C)O` [I.102] gave a logP of 4.01.

`Cc1nc2c(F)c(F)ccc2nc1Oc1c(Cl)cccc1[Si](C)(C)O` [I.103] gave a lipophilicity (logP) of 3.96.

For `Cc1cccc([Si](C)(C)O)c1Oc1nc2ccc(F)c(F)c2nc1C` [I.104], the lipophilicity (logP) stood at 3.73.

As for `Cc1nc2c(F)c(F)ccc2nc1Oc1cc(F)ccc1[Si](C)(C)O` [I.105], the logP is recorded as 3.58. This logP and that of the molecule before are within 0.2 log units of each other.

For `Cc1nc2c(F)c(F)ccc2nc1Oc1c(Cl)cccc1[Si](C)(C)C` [I.106], the logP is on record as 6.07.

For the molecule `Cc1cccc([Si](C)(C)C)c1Oc1nc2ccc(F)c(F)c2nc1C` [I.107], the logP was determined as 5.88.

As for `Cc1nc2c(F)c(F)ccc2nc1Oc1cc(F)ccc1[Si](C)(C)C` [I.108], the logP came out at 5.57.

`Cc1nc2ccccc2nc1Oc1cccc(F)c1[Si](C)(C)O` [I.109] had a logP of 3.25.

In the case of `Cc1nc2ccccc2nc1Oc1ccccc1[Si](C)(C)C` [I.110], the logP amounted to 5.31.

The molecule `Cc1nc2ccccc2nc1Oc1cccc(F)c1[Si](C)(C)C` [I.111] registered a log partition coefficient (logP) of 5.45. This logP and that of the molecule before are within 0.2 log units of each other.

The molecule `Cc1nc2ccccc2nc1Oc1ccccc1[Si](C)(C)O` [I.112] gave a logP of 3.01.

Take `Cc1nc2ccccc2nc1Oc1cccc(F)c1[Si](C)(C)c1cccs1` [I.113]: the logP came out at 5.51.

`COc1ccc([Si](C)(C)c2c(F)cccc2Oc2nc3ccccc3nc2C)cc1` [I.114] registered a logP of 5.35.

Consider `Cc1nc2ccccc2nc1Oc1cccc(F)c1[Si](C)(C)c1ccccc1` [I.115], for which the logP turned out to be 5.59.

Regarding `C[Si](C)(O)c1c(F)cccc1Oc1cnc2ccsc2c1` [I.117], the logP is 2.80.

In turn, `C[Si](C)(C)c1c(F)cccc1Oc1cnc2ccsc2c1` [I.118] displayed a logP of 5.22.

The molecule `C[Si](C)(O)c1c(F)cccc1Oc1cnc2sccc2c1` [I.119] had a logP of 3.09.

In turn, `C[Si](C)(C)c1c(F)cccc1Oc1cnc2sccc2c1` [I.120] had a logP of 5.45.

Take `C[Si](C)(O)c1c(F)cccc1Oc1cnc2ccnn2c1` [I.121]: the logP amounted to 2.07.

Consider `C[Si](C)(C)c1c(F)cccc1Oc1cnc2ccnn2c1` [I.122], for which the logP was found to be 4.23.

Turning to `C[Si](C)(C)c1ccccc1Oc1cnc2ccnn2c1` [I.123], the logP is 4.11.

Molecule `C[Si](C)(C)c1ccccc1Oc1cnc2nccn2c1` [I.124] showed a logP of 2.78.

`C[Si](C)(O)c1ccccc1Oc1cnc2nccn2c1` [I.125]: the logP is 2.10.

As for `C[Si](C)(O)c1ccccc1Oc1cnc2c(F)cnn2c1` [I.126], the logP was 2.50.

Molecule `C[Si](C)(O)c1c(F)cccc1Oc1cnc2c(F)cnn2c1` [I.127] had a logP of 2.60. The logP values of the last two molecules are within 0.2 log units of each other.

Regarding `C[Si](C)(C)c1c(F)cccc1Oc1cnc2c(F)cnn2c1` [I.128], the logP was 4.61.

`C[Si](C)(C)c1ccccc1Oc1cnc2c(F)cnn2c1` [I.129] came in with a logP of 4.56.

Consider `Cc1c(Cc2ccccc2[Si](C)(C)C)cnc2ccccc12` [I.130], for which the logP came to 3.19.

The molecule `C[Si](C)(C)c1c(F)cccc1Sc1cnc2ccccc2c1` [I.131] came in with a logP of 5.72.

Molecule `C[Si](C)(C)c1c(F)cccc1[S+]([O-])c1cnc2ccccc2c1` (stereo not drawn) [I.132] had a logP of 3.63.

`C[Si](C)(C)c1c(F)cccc1C(O)c1cnc2ccccc2c1` (stereo not drawn) [I.133]: the logP is 4.16.

As for `Cc1nc2ccccc2cc1Oc1ccc(Cl)cc1[Si](C)(C)C` [I.134], the logP is given as 5.68.

The molecule `Cc1nc2ccccc2cc1Oc1ccc(-c2ccccc2)cc1[Si](C)(C)C` [I.135] showed a logP of 6.27.

The molecule `Cc1nc2ccccc2cc1Oc1ccc(C2CC2)cc1[Si](C)(C)C` [I.136] showed a logP of 5.68.

In turn, `C=Cc1ccc(Oc2cc3ccccc3nc2C)c([Si](C)(C)C)c1` [I.137] came in with a logP of 5.51.

For the molecule `Cc1nc2ccccc2cc1Oc1ccc(-c2ccsc2)cc1[Si](C)(C)C` [I.138], the logP worked out at 5.85.

As to `Cc1nc2ccccc2cc1Cc1ccccc1[Si](C)(C)C` [I.139], the logP came to 2.76.

The molecule `Cc1nc2ccccc2cc1Cc1ccccc1[Si](C)(C)c1ccccc1` [I.140] returned a logP of 2.88.

For `C[Si](C)(c1ccccc1)c1ccccc1Cc1cnc2cccnc2c1` [I.141], the logP is on record as 4.14.

As for `C[Si](C)(Cc1ccccc1)c1ccccc1Cc1cnc2ccccc2c1` [I.142], the logP came out at 4.94.

Turning to `C[Si](C)(c1ccc(Cc2ccccc2)cc1)c1ccccc1Cc1cnc2ccccc2c1` [I.143], the logP came to 5.78.

Still in this data set, the particulars now being: logP Method A.
For the molecule `Cc1nc2c(F)c(F)ccc2cc1Oc1cc([N+](=O)[O-])ccc1Br` [II.06A], the logP is 4.04.

The data set is the same for the next values; noted with them: reversed-phase HPLC column (C18), Method A: 40° C., 0.1% aqueous formic acid and acetonitrile.
`Fc1cccc(Oc2cnc3ccccc3c2)c1I` [IIa.01, 3-(3-fluoro-2-iodophenoxy)quinoline]: the chromatographic logP (as a rule, a lipophilicity value derived from retention on a column) is 3.71.

With `Ic1ccccc1Oc1cnc2ccccc2c1` [IIa.02, 3-(2-iodophenoxy)quinoline], the chromatographic logP turned out to be 3.71.

`Brc1ccccc1Oc1cnc2ccccc2c1` [IIa.03, 3-(2-bromophenoxy)quinoline] came in with a chromatographic logP of 3.47.

Molecule `Fc1cccc2cc(Oc3ccccc3Br)cnc12` [IIa.04, 3-(2-bromophenoxy)-8-fluoroquinoline] displayed a chromatographic logP of 3.61.

Turning to `Cc1nc2c(F)cccc2cc1Oc1ccccc1Br` [IIa.05, 3-(2-bromophenoxy)-8-fluoro-2-methylquinoline], the chromatographic logP amounted to 3.96.

Molecule `Fc1ccc2cc(Oc3ccccc3Br)cnc2c1F` [IIa.06, 3-(2-bromophenoxy)-7,8-difluoroquinoline] displayed a chromatographic logP of 3.92.

`Cc1nc2c(F)c(F)ccc2cc1Oc1ccccc1Br` [IIa.07, 3-(2-bromophenoxy)-7,8-difluoro-2-methylquinoline]: the chromatographic logP came to 4.25.

For the molecule `Cc1nc2ccccc2cc1Oc1ccccc1Br` [IIa.08, 3-(2-bromophenoxy)-2-methylquinoline], the chromatographic logP was 3.96.

In the case of `Cc1nc2c(F)c(F)ccc2cc1Oc1c(F)cccc1Br` [IIa.09, 3-(2-bromo-6-fluorophenoxy)-7,8-difluoro-2-methylquinoline], the chromatographic logP was found to be 4.25.

As for `Cc1nc2c(F)c(F)ccc2cc1Oc1cc(F)ccc1Br` [IIa.10, 3-(2-bromo-5-fluorophenoxy)-7,8-difluoro-2-methylquinoline], the chromatographic logP was found to be 4.34.

`Fc1ccc(Oc2cnc3c(Cl)cccc3c2)c(Br)c1` [IIa.11, 3-(2-bromo-4-fluorophenoxy)-8-chloroquinoline] came in with a chromatographic logP of 4.18.

Take `Cc1nc2c(F)c(F)ccc2cc1Oc1ccc(F)cc1Br` [IIa.12, 3-(2-bromo-4-fluorophenoxy)-7,8-difluoro-2-methylquinoline]: the chromatographic logP came to 4.25.

`Cc1nc2ccccc2cc1Oc1ccc(F)cc1Br` [IIa.13, 3-(2-bromo-4-fluorophenoxy)-2-methylquinoline] returned a chromatographic logP of 3.35.

Staying with this data set, now noted: reversed-phase HPLC column (C18), Method B: 40° C., 0.001 molar ammonium acetate solution in water and acetonitrile.
As to `Brc1c(COC2CCCCO2)cccc1Nc1cnc2ccccc2c1` (stereo not drawn) [II.04A, N-{2-bromo-3-[(tetrahydro-2H-pyran-2-yloxy)methyl]phenyl}quinolin-3-amine], the chromatographic logP worked out at 4.13.

Still in this data set, the particulars now being: reversed-phase HPLC column (C18), logP Method A.
In the case of `O=Cc1cccc(Oc2cnc3ccccc3c2)c1I` [II.01A], the chromatographic logP was determined as 3.29.

Consider `O=Cc1cccc(Oc2cnc3c(F)c(F)ccc3n2)c1Br` [II.01B], for which the chromatographic logP was 3.48.

The molecule `OCc1cccc(Oc2cnc3ccccc3c2)c1I` [II.02A] had a chromatographic logP of 2.59.

`Cc1nc2ccccc2cc1Oc1cccc(CCO)c1Br` [II.03A] registered a chromatographic logP of 2.14.

As for `Cc1nc2ccccc2cc1Oc1cccc(CCCl)c1Br` [II.08A], the chromatographic logP is 3.99.

Still in this data set, the particulars now being: reversed-phase HPLC column (C18), logP Method B.
`Brc1c(COC2CCCCO2)cccc1Nc1cnc2ccccc2c1` (stereo not drawn) [II.04A, N-{2-bromo-3-[(tetrahydro-2H-pyran-2-yloxy)methyl]phenyl}quinolin-3-amine] yielded a chromatographic logP of 4.13.

Turning to `Ic1c(COC2CCCCO2)cccc1Oc1cnc2ccccc2c1` (stereo not drawn) [II.05A], the chromatographic logP was determined as 4.56.

These data come from patent US10683311B2 (priority 2015, dated 2020).
